{"source": "patent US20230391828A1", "about": "“REGULATORS OF CELL DIVISION” (TECHNISCHE UNIVERSITÄT DRESDEN, priority 2020, published 2023)", "key": {"[1]": {"target": "T1, APC/C (Homo sapiens, UniProt Q9NYG5)", "T1 construct": "made in house; host or cells: SF9 insect cells (baculovirus)", "assay": "In vitro APC/C ubiquitination assay driven by the E2 enzyme UBE2C, fluorophore-labelled securin substrate", "type": "biochemical"}, "[2]": {"target": "T1, APC/C", "assay": "In vitro APC/C ubiquitination assay with different E2 enzymes (UBE2C, UBE2D, UBE2S), Ub-cyclin B1 substrate", "type": "biochemical", "conditions": "100 μM, reaction time 40 min", "protocol": "Proteins were separated by SDS-PAGE electrophoresis using precast Bolt 4-12% Bis-Tris Plus protein gels (Thermo Fisher Scientific) and Criterion XT Bis-Tris Midi Protein Gels (Bio-Rad). In different experiments, various conditions were used: in vitro APC/C ubiquitination assays—165 V, 40 min, SDS-MES running buffer (50 mM MES, 50 mM Tris base, 0.1% SDS, 1 mM EDTA, pH 7.3; Thermo Fisher Scientific); in vitro APC/C ubiquitination assays determining KM—165V, 1 h, SDS-MOPS running buffer (50 mM MOPS, 50 mM Tris base, 0.1% SDS, 1 mM EDTA, pH 7.7; Thermo Fisher Scientific); pull-down binding assay—165 V, 35 min, SDS-MES running buffer.\nAPC/C-dependent ubiquitination reactions were performed at 30° C. in 30 mM HEPES pH 7.4, 175 mM NaCl, 8 mM MgCl2, 0.05% Tween-20, 1 mM DTT and 5% glycerol and contained 20 nM recombinant APC/C (note, for testing the first generation of inhibitors, APC/C and Cdc20 immunoprecipitated from mitotic HeLa K cells was used), 340 nM Cdc20, 46 nM GST-UBA1, 340 nM UBE2C (alternatively 400 nM UBE2D1, 280 nM UBE2S), 21 μM His6-ubiquitin or if it is indicated 21 μM methylated-ubiquitin (BostonBiochem), 2.6 mM ATP, 10 mM phosphocreatine and 11 μM creatine kinase. […] Detection of fluorescently labelled substrates was done by quantitative near-infrared scanning system Odyssey."}, "[3]": {"target": "T2, APC/C (APC11) (Homo sapiens, UniProt Q9NYG5)", "T2 construct": "endogenous in cells; host or cells: HeLa K cell extract", "assay": "Pull-down binding assay in HeLa K cell extract, APC/C", "conditions": "Pra peptide clicked to azide agarose or magnetic beads, Western blot", "protocol": "For the protein transfer, the 0.45 μm Immobilon-FL PVDF membrane (Merck Millipore) was used. The membrane was activated in ethanol and then transferred to the Blotting buffer (50 mM SDS-MOPS, 50 mM Tris base, 0.1% SDS, 1 mM EDTA, 20% EtOH). The proteins were transferred using a wet transfer for 1.5 h at 400 mA. Subsequently, the membrane was incubated with the blocking solution, 10% milk in PBS-T (0.02% Tween-20 in PBS), for 1 h at room temperature. To detect proteins of the interest, the membrane was incubated with primary antibodies overnight at 4° C. Followed by washing the membrane 3 times 10 min with PBS-T and incubation with IRDye fluorescently labelled secondary antibodies for 1 h. Prior detection, the membrane was twice washed with PBS-T for 10 min and once with PBS for 10 min. The detection was done using the quantitative near-infrared scanning system Odyssey (LI-COR Biosciences).\nHeLa K cell pellet was re-suspended in the extraction buffer (30 mM HEPES pH 7.5, 175 mM NaCl, 2.5 mM MgCl2, 0.25% NP40, 10% glycerol, 1 mM DTT) supplemented with 10 μM MG132 (VWR), 1 mM PMSF (Sigma-Aldrich), complete protease inhibitor cocktail (Roche) and PhosSTOP phosphatase inhibitors (Roche) and incubated for 20 min on ice, followed by centrifugation of cell debris for 15 min at 4° C. 16 100 g. In mean time, inhibitor molecules containing Propargyl (Pra) chemical group were covalently attached to the azide agarose or azide magnetic resin (Jena Bioscience) by Cu(I)-catalysed azide-alkyne cycloaddition reaction. Specifically, the inhibitor molecules were mixed with azide agarose resin in ratio 0.125 μmol inhibitor/25 μl agarose resin and azide magnetic resin in ratio 0.018 μmol inhibitor/20 μl magnetic resin. The reaction was catalysed by 1 mM CuSO4, 0.1 mM TBTA (Sigma-Aldrich) and 1 mM Sodium ascorbate and was performed on the rotating wheel for 30 min at room temperature in the volume of 1 ml. Subsequently, the resin was washed 5 times with the extraction buffer. The inhibitor-agarose resin was added to 1 mg of HeLa K cell extract and the inhibitor-magnetic resin was added to 0.5 mg of HeLa K cell extract followed by incubation at 4° C. for 2 h. Followed by washing the resin 5 times with the extraction buffer. Pull-down proteins were eluted by boiling for 15 min with 1×LDS sample buffer supplemented with 100 mM DTT (agarose resin) or by incubation with 1×LDS sample buffer for 10 min at room temperature followed by taking supernatant that was supplemented with 100 mM DTT and boiling it for 10 min. Samples were subjected to SDS PAGE and Western blot analysis.\nHeLa K cell pellet was re-suspended in the extraction buffer (30 mM HEPES pH 7.5, 175 mM NaCl, 2.5 mM MgCl2, 0.25% NP40, 10% glycerol, 1 mM DTT supplied with complete protease inhibitor cocktail (Roche), PhosSTOP phosphatase inhibitors (Roche), 1 mM PMSF, 10 μM MG132) and incubated for 20 min on ice, followed by centrifugation to clear the lysate for 15 min at 4° C. 16,100 g. In the meantime, inhibitor molecules containing the propargyl-Gly-OH (Pra) chemical group were covalently attached to the azide agarose resin (Jena Bioscience) by Cu(I)-catalysed azide-alkyne cycloaddition reaction. Specifically, the inhibitor molecules were mixed with azide agarose resin in ratio 0.125 μmol inhibitor/20 μl agarose resin. The reaction was catalysed by 0.1 mM CuSO4, 0.5 mM THPTA (Sigma-Aldrich) and 5 mM Sodium ascorbate and was performed on the rotating wheel for 30 min at room temperature in the volume of 1 ml. […]"}, "[4]": {"system": "APC/C", "assay": "Ubiquitinated securin (Mean ± SD)", "conditions": "100 µM", "text": "Table printed on a drawing sheet, Figure 6\nHead of the field: Ubiquitinated securin (Mean ± SD)"}}, "note": "Bridge positions count the residues as written; N and C are the ends. Square brackets hold non-standard residues; d marks the D form. Peptide text beside a SMILES is read from it. R8 = C=CCCCCCC[C@@](C)(N)C(=O)O; S5 = C=CCCC[C@](C)(N)C(=O)O", "data": [{"compound": "CC[C@H](C)[C@@H]1NC(=O)[C@H](CCC(=O)O)NC(=O)[C@H](CCCCN)NC(=O)[C@H]([C@@H](C)CC)NC(=O)[C@](C)(NC(=O)[C@H](Cc2c[nH]c3ccccc23)NC(=O)[C@H](Cc2c[nH]c3ccccc23)NC(=O)[C@H](CCC(=O)O)NC(C)=O)CCCCCCC=CCCC[C@@](C)(C(=O)N[C@@H](CCCNC(=N)N)C(=O)N[C@@H](CCCNC(=N)N)C(=O)N[C@@H](C)C(N)=O)NC(=O)[C@H](CCCNC(=N)N)NC(=O)[C@H](CCC(N)=O)NC1=O", "note": "[G3-6, Ac-cyclo(4,11)-EWWZIKEIQRXRRA-NH2] (Ac-EWW[R8]IKEIQR[S5]RRA-NH2; staple 4-11)", "values": [{"measurement": "difference between KM without and with inhibitor", "setting": "[1]; 3 μM G3-6, securin titration, unpaired t test p=0.0886", "value": "not significant"}, {"measurement": "inhibition of APC/C activity in vitro compared with TAME", "setting": "[1]; 100 μM, UBE2C, reaction time 45 min, 3 independent assays", "value": "inhibit APC/C in vitro more efficiently than TAME"}, {"measurement": "inhibition of APC/C activity in vitro, titration", "setting": "[1]; 25, 50, 75 and 100 μM, UBE2C, reaction time 45 min", "value": "inhibits APC/C in vitro the most potently"}, {"measurement": "IC50", "setting": "[1]; UBE2C, 0.01-100 μM, reaction time 10 min, methylated ubiquitin, ubiquitinated securin, 4 independent experiments", "value": 1.96, "unit": "µM"}, {"measurement": "Ki", "setting": "[1]; model for non-competitive inhibition in Prism 6.0, 3 μM inhibitor, securin 50-5000 nM, reaction time 2 min, read-out: inhibitory constant (Ki)", "value": 5, "unit": "µM"}, {"measurement": "mechanism of action (type of the inhibition)", "setting": "[1]; titration of substrate (securin)", "value": "non-competitive inhibitor"}, {"measurement": "IC50 (in words)", "setting": "[1]; titration of the G3-6 molecule", "value": "low micromolar range"}, {"measurement": "inhibition of APC/C activity driven by different E2 enzymes", "setting": "[2]", "value": "inhibits APC/C in vitro independently on employed E2 enzymes"}, {"measurement": "binding to the APC/C (pull-down)", "setting": "[3]", "value": "binds specifically to the APC/C"}, {"measurement": "Ubiquitinated securin (Mean ± SD)", "setting": "[4]", "value": "3.6 ± 5", "unit": "%"}]}]}
